In article PMC4457643 (Biochimica et biophysica acta, 2015):
Like-named read-outs stand apart in the source and are kept apart here.

Tests used:
CcP(triVal) [1] = target: T1, CcP(triVal) (Saccharomyces cerevisiae, UniProt P00431, H119V/R115V/W118V); assay: biochemical; format: binding, yeast; settings: for share of absorbance change, high-affinity (KD1) phase / share of absorbance change, low-affinity (KD2) phase: pH 7.0
CcP(triLeu) [2] = target: T2, CcP(triLeu) (Saccharomyces cerevisiae, UniProt P00431, H119L/R115L/W118L); assay: biochemical; format: binding, yeast
T2 sequence (P00431 68-361 R115L/W118L/H119L): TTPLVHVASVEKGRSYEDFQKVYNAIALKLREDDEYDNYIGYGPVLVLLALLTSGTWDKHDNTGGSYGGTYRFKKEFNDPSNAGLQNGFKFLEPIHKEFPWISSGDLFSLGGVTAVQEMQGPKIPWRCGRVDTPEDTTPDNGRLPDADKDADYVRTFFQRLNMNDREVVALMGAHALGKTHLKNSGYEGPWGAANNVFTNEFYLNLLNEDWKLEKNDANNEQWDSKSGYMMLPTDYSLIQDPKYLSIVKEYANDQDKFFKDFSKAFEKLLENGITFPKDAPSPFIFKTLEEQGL

CcP(triAla) [3] = target: T3, CcP(triAla) (Saccharomyces cerevisiae, UniProt P00431, H119A/R115A/W118A); assay: biochemical; format: binding, yeast; settings: for share of absorbance change, high-affinity (KD1) phase / share of absorbance change, low-affinity (KD2) phase: pH 7.0
T3 sequence (P00431 68-361 R115A/W118A/H119A): as the sequence (P00431 68-361 R115L/W118L/H119L) above, with L48A, L51A, L52A counted along it

[4] = free ligand; cited from earlier work
CcP(triAla) [5] = target: T3, CcP(triAla); assay: Stopped-flow kinetics of imidazole binding to CcP; design: species or system yeast
CcP(triLeu) [6] = target: T2, CcP(triLeu); assay: Stopped-flow kinetics of imidazole binding to CcP; design: species or system yeast; settings: for pKa1 for ka^app / pKa2 for ka^app: fit to Eq. 4 with pKa1 ≤ pKa2
CcP(triVal) [7] = target: T1, CcP(triVal); assay: Stopped-flow kinetics of imidazole binding to CcP; design: species or system yeast; settings: for pKa1 for ka^app / kd^app, k^acid (low pH limit): fit to Eq. 4; for ka^app, k^acid (low pH value): fit to Eq. 4, 0.10 M ionic strength, 25 °C; for ka^app / kd^app / kmax: pH 7
[8] = read-out: KD2 (low-affinity phase), pH 7.0, 0.10 M ionic strength potassium phosphate buffer
[9] = fast phase, fit to Eq. 4, 0.10 M ionic strength, 25 °C
[10] = read-out: KD1 (high-affinity phase), pH 7.0, 0.10 M ionic strength potassium phosphate buffer
[11] = read-out: KD1acid (low pH limit of KD1), fit of pH dependence pH 4-8 to Eq. 2
[12] = read-out: KD1base (high pH limit of KD1), fit of pH dependence pH 4-8 to Eq. 2
[13] = read-out: KD2base (high pH limit of KD2), fit of pH dependence pH 4-8 to Eq. 2
[14] = fast phase, listed as imidazole
[15] = slow phase, single-ionization fit
[16] = slow phase, listed as imidazole

T1 sequence (P00431 68-361 R115V/W118V/H119V): as the sequence (P00431 68-361 R115L/W118L/H119L) above, with L48V, L51V, L52V counted along it

SMILES: Cn1ccnc1 [1-Methylimidazole, 1-methylimidazole]
- Kd (CcP(triVal) [1]): 0.16 mM
- share of absorbance change, high-affinity (KD1) phase (CcP(triVal) [1]): 77%
- share of absorbance change, low-affinity (KD2) phase (CcP(triVal) [1]): 23%
- Kd (CcP(triVal) [1]; [8]): 6.8 mM
- Kd (CcP(triLeu) [2]): 39 mM
- Kd (CcP(triAla) [3]): 0.35 mM
- share of absorbance change, high-affinity (KD1) phase (CcP(triAla) [3]): 30%
- share of absorbance change, low-affinity (KD2) phase (CcP(triAla) [3]): 70%
- share of absorbance change, low-affinity (KD2) phase (CcP(triAla) [3]; listed as MIM): about 70%

SMILES: O=[N+]([O-])c1c[nH]cn1 [4-Nitroimidazole, 4-nitroimidazole]
- Kd (CcP(triVal) [1]): 0.56 mM
- pKa for the imidazole/imidazolate ionization [4]: 9.5
- Kd (CcP(triLeu) [2]): 35 mM
- Kd (CcP(triAla) [3]): 16 mM

SMILES: c1c[nH]cn1 [Imidazole]
- pKa1 for ka^app (CcP(triAla) [5]; fast phase, fit to Eq. 4): 7.0 ± 0.2
- ka^app, k^acid (low pH value) (CcP(triAla) [5]; [9]): 2.2 ± 0.4 M^−1 s^−1
- ka^app (CcP(triAla) [5]; fast phase, pH 7): 80 ± 7 M⁻¹ s⁻¹
- kd^app (CcP(triAla) [5]; fast phase, pH 7): 0.43 ± 0.04 s⁻¹
- kd^app, pH-independent average value (CcP(triAla) [5]; fast phase, pH range 4.0 to 8.0): 0.47 ± 0.10 s^−1
- kmax (CcP(triAla) [5]; slow phase, pH 7): 0.050 ± 0.009 s⁻¹
- kmax (= kslow), pH-independent average value (CcP(triAla) [5]; slow phase, pH range 4.0 to 8.0): 0.032 ± 0.011 s^−1
- kmax (= kslow), pH-independent average value (CcP(triAla) [5]; slow phase, pH range 4.0 to 8.0, listed as imidazole): (3.2 ± 1.1) × 10^−2 s^−1
- high-affinity imidazole binding stronger than for wild-type CcP (CcP(triVal) [1]; pH 7): 4.7 orders of magnitude
- share of absorbance change, high-affinity (KD1) phase (CcP(triVal) [1]): 68%
- share of absorbance change, low-affinity (KD2) phase (CcP(triVal) [1]): 32%
- share of absorbance change, high-affinity phase, average (CcP(triVal) [1]; pH range 4 to 8): 67 ± 10%
- Kd (CcP(triVal) [1]; [10]): 0.083 mM
- Kd (CcP(triVal) [1]; [11]): 9.6 ± 5.5 mM
- Kd (CcP(triVal) [1]; [12]): 0.096 ± 0.007 mM
- Kd (CcP(triVal) [1]; read-out: KD1base (high pH limit of KD1), fit of pH dependence to Eq. 2): 0.096 ± 0.007 mM
- Kd (CcP(triVal) [1]; [8]): 12 mM
- Kd (CcP(triVal) [1]; [13]): 6.7 ± 2.3 mM
- ka^app, k^acid (low pH value) (CcP(triLeu) [6]; [9]): 2.2 ± 0.4 M^−1 s^−1
- ka^app, k^base (high pH value) (CcP(triLeu) [6]; [9]): 0 ± 25 M^−1 s^−1
- ka^app, k^base (high pH value) (CcP(triLeu) [6]; fast phase, fit to Eq. 4, 0.10 M ionic strength, 25 °C, listed as imidazole): less than 25 M^−1 s^−1
- pKa1 for ka^app (CcP(triLeu) [6]; fast phase): 7.3 ± 0.9
- pKa2 for ka^app (CcP(triLeu) [6]; fast phase): 7.3 ± 1.5
- pKa1 for ka^app (CcP(triLeu) [6]; [14]): 7.3
- pKa2 for ka^app (CcP(triLeu) [6]; [14]): 7.3
- ka^app (CcP(triLeu) [6]; fast phase, pH 7): 36 ± 4 M⁻¹ s⁻¹
- kd^app (CcP(triLeu) [6]; fast phase, pH 7): 0.24 ± 0.03 s⁻¹
- kd^app, pH-independent average value (CcP(triLeu) [6]; fast phase, pH range 4 to 8): 0.38 ± 0.12 s^−1
- kmax, average value (CcP(triLeu) [6]; slow phase, averaged over pH range 4 to 8): 0.048 ± 0.018 s⁻¹
- kmax (CcP(triLeu) [6]; slow phase, pH 7): 0.070 ± 0.002 s⁻¹
- kmax (= kslow), k^acid (low pH value) (CcP(triLeu) [6]; [15]): 0.032 ± 0.003 s^−1
- kmax (= kslow), k^neut (high pH value) (CcP(triLeu) [6]; [15]): 0.077 ± 0.011 s^−1
- pKa1 for kmax (CcP(triLeu) [6]; [15]): 6.7 ± 0.4
- share of absorbance change, high-affinity (KD1) phase (CcP(triLeu) [2]; pH 7.0): 78%
- share of absorbance change, low-affinity (KD2) phase (CcP(triLeu) [2]; pH 7.0): 22%
- Kd (CcP(triLeu) [2]; [10]): 0.6 mM
- Kd (CcP(triLeu) [2]; [12]): 0.22 ± 0.15 mM
- Kd (CcP(triLeu) [2]; [8]): 17 mM
- share of absorbance change at 414 nm, low-affinity phase (CcP(triAla) [3]; between pH 4 and 8): 75 ± 8%
- share of absorbance change, low-affinity phase (CcP(triAla) [3]; pH 5.5): 76%
- share of absorbance change, high-affinity (KD1) phase (CcP(triAla) [3]): 17%
- share of absorbance change, low-affinity (KD2) phase (CcP(triAla) [3]): 83%
- Kd (CcP(triAla) [3]; read-out: KD1 (high-affinity phase), pH 5.5, 25 °C): 0.1 ± 0.03 mM
- Kd (CcP(triAla) [3]; [10]): 0.22 mM
- Kd (CcP(triAla) [3]; [11]): > 25 mM
- Kd (CcP(triAla) [3]; [12]): 0.13 ± 0.06 mM
- Kd (CcP(triAla) [3]; [8]): 12 mM
- Kd (CcP(triAla) [3]; read-out: KD2 (low-affinity phase), pH 7.0, 25 °C): 11 ± 1 mM
- Kd (CcP(triAla) [3]; [13]): 6.4 ± 0.7 mM
- pKa1 for ka^app (CcP(triVal) [7]; fast phase): 6.2 ± 0.3
- ka^app, k^acid (low pH value) (CcP(triVal) [7]; fast phase): 5.4 ± 16.2 M^−1 s^−1
- ka^app, k^acid (low pH value) (CcP(triVal) [7]; [14]): 5.4 M^−1 s^−1
- ka^app (CcP(triVal) [7]; fast phase): 170 ± 7 M⁻¹ s⁻¹
- kd^app (CcP(triVal) [7]; fast phase): 0.32 ± 0.01 s⁻¹
- kmax (CcP(triVal) [7]; fast phase): 1.9 ± 0.1 s⁻¹
- kd^app, pH-independent average value (CcP(triVal) [7]; fast phase, pH range 4 to 8): 0.25 ± 0.08 s^−1
- kmax, pH-independent value (CcP(triVal) [7]; fast phase, pH range 4 to 8): 1.5 ± 0.3 s^−1
- kmax, pH-independent value (CcP(triVal) [7]; fast phase, pH range 4 to 8, listed as imidazole): 1.5 s^−1
- kd^app, k^acid (low pH limit) (CcP(triVal) [7]; slow phase): 0.026 ± 0.009 s^−1
- pKa1 for ka^app (CcP(triVal) [7]; slow phase): 7.6 ± 0.3
- ka^app, k^acid (low pH value) (CcP(triVal) [7]; slow phase): 1.3 ± 0.7 M^−1 s^−1
- ka^app, k^acid (low pH value) (CcP(triVal) [7]; [16]): 1.3 M^−1 s^−1
- kd^app, k^acid (low pH limit) (CcP(triVal) [7]; [16]): 0.026 s^−1
- ka^app (CcP(triVal) [7]; slow phase): 30 ± 10 M⁻¹ s⁻¹
- kd^app (CcP(triVal) [7]; slow phase): 0.050 ± 0,006 s^−1
- kmax (CcP(triVal) [7]; slow phase): 0.16 ± 0.08 s⁻¹
- kmax, pH-independent value (CcP(triVal) [7]; slow phase, pH range 4 to 8): 0.17 ± 0.04 s^−1
- kmax, pH-independent value (CcP(triVal) [7]; slow phase, pH range 4 to 8, listed as imidazole): 0.17 s^−1
